Assay results taken from patent US9636307B2, “Oral pharmaceutical composition comprising taste-masked N-acetylcysteine” (HERMES ARZNEIMITTEL GMBH, priority 2013, dated 2017).

Experiments:
[1] = Decomposition during processing of the material (sulphurous smell); assay type: physicochemical; conditions: between about 40 and 48° C. compared to working at above 50° C.; evident by reduced sulphurous smell
[2] = Stability testing of N-acetylcysteine by headspace gas chromatography; assay type: physicochemical

Compound: CC(=O)N[C@@H](CS)C(=O)O [N-acetylcysteine, N-acetyl-L-cysteine]
- decomposition of N-acetylcysteine [1]: notably suppressed
- sulphur species detectable by headspace gas chromatography ([2]; sample subjected to 60° C. for 2 hours): two sulphurous species, acetyl mercaptane and s-ethyl ethanthioate, were detected
- sulphur species detectable by headspace gas chromatography ([2]; sample treated at 40° C. for 2 hours): no sulphur species are detectable
